Read-outs that look alike come from different tables or passages of the source.
What was measured:
EGFR L858R/C797S = EGFR L858R/C797S (Homo sapiens, UniProt P00533, C797S/L858R); experiment: Biochemical EGFR kinase assay (Lance Ultra TR-FRET), double mutant L858R/C797S
Method in brief: (§1)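 In this biochemical assay, phosphorylation after a one-hour room-temperature reaction was detected with europium-labelled anti-phosphopeptide antibody at 2 nM final concentration.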

EGFR del19/T790M/C797S = EGFR del19/T790M/C797S (Homo sapiens, UniProt P00533, C797S/DEL746-750/T790M); experiment: Biochemical EGFR kinase assay (Lance Ultra TR-FRET), triple mutant del19/T790M/C797S
Method in brief: as §1

EGFR wildtype (WT) = EGFR wildtype (WT) (Homo sapiens, UniProt P00533); experiment: Biochemical EGFR kinase assay (Lance Ultra TR-FRET), wildtype
Method in brief: as §1

EGFR del19/C797S = EGFR del19/C797S (Homo sapiens, UniProt P00533, C797S/DEL746-750); experiment: Biochemical EGFR kinase assay (Lance Ultra TR-FRET), double mutant del19/C797S
Method in brief: as §1

EGFR L858R/T790M/C797S = EGFR L858R/T790M/C797S (Homo sapiens, UniProt P00533, C797S/L858R/T790M); experiment: Biochemical EGFR kinase assay (Lance Ultra TR-FRET), triple mutant L858R/T790M/C797S
Method in brief: as §1

[1] = Km ATP, read-out: IC50 L858R/C797S, Km ATP
[2] = Km ATP, read-out: IC50 del19/T790M/C797S, Km ATP
[3] = Km ATP, read-out: IC50 WT, Km ATP
[4] = Km ATP, read-out: IC50 del19/C797S, Km ATP
[5] = Km ATP, read-out: IC50 L858R/T790M/C797S, Km ATP
[6] = IC50 L858R/C797S (nM) 100 μM ATP, 100 μM ATP
[7] = Km ATP, read-out: IC50 L858R/C797S (nM) Km ATP
[8] = IC50 del19/T790M/C797S (nM) 100 μM ATP, 100 μM ATP
[9] = Km ATP, read-out: IC50 del19/T790M/C797S (nM) Km ATP
[10] = IC50 WT (nM) 100 μM ATP, 100 μM ATP
[11] = Km ATP, read-out: IC50 WT (nM) Km ATP
[12] = IC50 del19/C797S (nM) 100 μM ATP, 100 μM ATP
[13] = Km ATP, read-out: IC50 del19/C797S (nM) Km ATP
[14] = IC50 L858R/T790M/C797S (nM) 100 μM ATP, 100 μM ATP
[15] = Km ATP, read-out: IC50 L858R/T790M/C797S (nM) Km ATP

Chain of EGFR del19/T790M/C797S (P00533 with tags, fused parts or gaps DEL746-750/T790M/C797S): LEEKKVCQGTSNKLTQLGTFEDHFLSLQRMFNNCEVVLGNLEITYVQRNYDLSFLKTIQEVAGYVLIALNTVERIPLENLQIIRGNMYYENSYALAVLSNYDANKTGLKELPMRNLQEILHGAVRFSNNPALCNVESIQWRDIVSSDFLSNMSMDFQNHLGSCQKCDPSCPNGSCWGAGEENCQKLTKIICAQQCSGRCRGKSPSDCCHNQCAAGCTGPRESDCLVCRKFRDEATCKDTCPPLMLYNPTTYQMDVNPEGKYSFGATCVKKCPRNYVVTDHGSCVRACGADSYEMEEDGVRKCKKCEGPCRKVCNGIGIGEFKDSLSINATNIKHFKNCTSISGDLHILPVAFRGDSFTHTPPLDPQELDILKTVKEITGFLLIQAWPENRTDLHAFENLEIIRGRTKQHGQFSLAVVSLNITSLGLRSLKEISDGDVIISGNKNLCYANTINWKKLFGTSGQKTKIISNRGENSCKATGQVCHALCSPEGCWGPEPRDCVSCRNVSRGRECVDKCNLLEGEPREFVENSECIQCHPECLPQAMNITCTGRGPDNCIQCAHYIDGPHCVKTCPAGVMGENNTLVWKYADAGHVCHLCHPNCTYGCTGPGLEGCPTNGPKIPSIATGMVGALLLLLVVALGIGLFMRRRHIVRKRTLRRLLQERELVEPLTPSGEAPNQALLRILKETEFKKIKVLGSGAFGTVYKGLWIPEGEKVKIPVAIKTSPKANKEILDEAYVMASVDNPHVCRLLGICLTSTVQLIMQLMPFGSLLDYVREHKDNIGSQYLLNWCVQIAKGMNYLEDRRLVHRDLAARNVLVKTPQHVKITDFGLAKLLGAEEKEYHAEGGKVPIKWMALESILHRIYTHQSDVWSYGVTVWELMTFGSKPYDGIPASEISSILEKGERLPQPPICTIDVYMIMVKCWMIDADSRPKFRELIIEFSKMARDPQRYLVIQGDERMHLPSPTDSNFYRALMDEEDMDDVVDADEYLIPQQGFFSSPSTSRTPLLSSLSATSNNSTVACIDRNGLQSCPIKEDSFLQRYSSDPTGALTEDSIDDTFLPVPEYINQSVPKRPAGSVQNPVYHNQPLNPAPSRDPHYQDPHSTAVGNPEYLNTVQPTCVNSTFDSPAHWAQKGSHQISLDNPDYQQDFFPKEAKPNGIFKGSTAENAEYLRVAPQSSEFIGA
Chain of EGFR L858R/C797S (P00533 25-1210 C797S/L858R): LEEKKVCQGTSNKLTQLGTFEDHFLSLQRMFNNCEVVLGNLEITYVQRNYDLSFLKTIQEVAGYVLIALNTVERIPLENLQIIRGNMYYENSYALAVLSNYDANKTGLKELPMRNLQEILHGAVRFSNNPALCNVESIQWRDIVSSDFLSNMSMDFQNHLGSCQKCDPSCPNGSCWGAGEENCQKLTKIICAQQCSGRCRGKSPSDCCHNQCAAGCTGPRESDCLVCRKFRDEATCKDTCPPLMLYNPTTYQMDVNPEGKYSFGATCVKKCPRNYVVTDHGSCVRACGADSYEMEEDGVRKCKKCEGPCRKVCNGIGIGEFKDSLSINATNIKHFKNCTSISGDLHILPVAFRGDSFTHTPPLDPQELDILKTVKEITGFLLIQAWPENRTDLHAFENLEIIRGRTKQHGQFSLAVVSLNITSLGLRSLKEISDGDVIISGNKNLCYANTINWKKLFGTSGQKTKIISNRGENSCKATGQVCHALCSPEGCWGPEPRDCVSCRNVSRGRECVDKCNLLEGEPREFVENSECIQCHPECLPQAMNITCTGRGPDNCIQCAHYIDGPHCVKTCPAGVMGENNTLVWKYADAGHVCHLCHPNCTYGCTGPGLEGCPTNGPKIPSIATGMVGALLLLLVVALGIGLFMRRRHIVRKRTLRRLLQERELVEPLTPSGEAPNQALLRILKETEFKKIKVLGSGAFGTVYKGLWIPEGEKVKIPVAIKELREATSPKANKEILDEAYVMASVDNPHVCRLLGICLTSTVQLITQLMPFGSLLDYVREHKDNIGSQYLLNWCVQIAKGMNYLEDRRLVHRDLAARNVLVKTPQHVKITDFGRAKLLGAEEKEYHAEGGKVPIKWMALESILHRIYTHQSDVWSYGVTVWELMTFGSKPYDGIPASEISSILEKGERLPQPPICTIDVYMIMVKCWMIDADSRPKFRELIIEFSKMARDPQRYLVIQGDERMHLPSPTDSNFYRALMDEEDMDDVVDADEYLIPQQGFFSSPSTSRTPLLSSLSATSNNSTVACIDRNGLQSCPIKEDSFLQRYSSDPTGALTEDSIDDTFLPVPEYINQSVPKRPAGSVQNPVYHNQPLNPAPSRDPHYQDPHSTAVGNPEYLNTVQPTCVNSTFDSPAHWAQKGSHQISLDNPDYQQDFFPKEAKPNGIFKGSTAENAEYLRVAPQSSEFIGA
Chain of EGFR wildtype (WT) (P00533 25-1210): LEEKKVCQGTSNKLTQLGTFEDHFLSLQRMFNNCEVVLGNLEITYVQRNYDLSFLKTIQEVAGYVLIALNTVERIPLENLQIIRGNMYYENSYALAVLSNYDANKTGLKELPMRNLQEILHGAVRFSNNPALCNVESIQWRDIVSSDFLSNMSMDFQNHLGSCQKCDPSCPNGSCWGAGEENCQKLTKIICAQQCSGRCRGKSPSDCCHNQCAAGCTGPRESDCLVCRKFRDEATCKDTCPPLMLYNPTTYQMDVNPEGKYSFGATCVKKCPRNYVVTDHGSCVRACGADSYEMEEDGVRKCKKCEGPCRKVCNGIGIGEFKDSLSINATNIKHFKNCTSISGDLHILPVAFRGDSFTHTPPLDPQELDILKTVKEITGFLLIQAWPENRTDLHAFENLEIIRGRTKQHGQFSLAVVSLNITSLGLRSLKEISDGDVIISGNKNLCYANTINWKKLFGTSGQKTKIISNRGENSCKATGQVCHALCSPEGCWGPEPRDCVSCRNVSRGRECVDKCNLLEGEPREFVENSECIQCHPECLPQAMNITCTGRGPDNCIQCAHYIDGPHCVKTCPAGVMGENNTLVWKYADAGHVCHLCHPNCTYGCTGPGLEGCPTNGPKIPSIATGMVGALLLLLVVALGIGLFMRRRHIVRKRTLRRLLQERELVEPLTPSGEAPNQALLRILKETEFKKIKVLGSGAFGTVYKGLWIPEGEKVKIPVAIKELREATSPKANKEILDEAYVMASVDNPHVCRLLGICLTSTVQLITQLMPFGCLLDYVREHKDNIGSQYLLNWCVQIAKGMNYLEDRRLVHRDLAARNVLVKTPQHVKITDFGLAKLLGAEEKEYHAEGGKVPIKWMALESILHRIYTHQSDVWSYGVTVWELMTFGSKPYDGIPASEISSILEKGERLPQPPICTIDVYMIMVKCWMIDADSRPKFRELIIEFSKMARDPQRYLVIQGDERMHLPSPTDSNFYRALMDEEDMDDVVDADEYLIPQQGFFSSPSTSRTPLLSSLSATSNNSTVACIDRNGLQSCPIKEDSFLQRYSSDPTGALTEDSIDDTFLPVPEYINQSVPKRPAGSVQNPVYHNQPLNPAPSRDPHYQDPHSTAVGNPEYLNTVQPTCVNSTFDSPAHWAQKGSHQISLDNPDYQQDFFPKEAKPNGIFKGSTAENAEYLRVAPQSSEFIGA
Chain of EGFR L858R/T790M/C797S (P00533 25-1210 T790M/C797S/L858R): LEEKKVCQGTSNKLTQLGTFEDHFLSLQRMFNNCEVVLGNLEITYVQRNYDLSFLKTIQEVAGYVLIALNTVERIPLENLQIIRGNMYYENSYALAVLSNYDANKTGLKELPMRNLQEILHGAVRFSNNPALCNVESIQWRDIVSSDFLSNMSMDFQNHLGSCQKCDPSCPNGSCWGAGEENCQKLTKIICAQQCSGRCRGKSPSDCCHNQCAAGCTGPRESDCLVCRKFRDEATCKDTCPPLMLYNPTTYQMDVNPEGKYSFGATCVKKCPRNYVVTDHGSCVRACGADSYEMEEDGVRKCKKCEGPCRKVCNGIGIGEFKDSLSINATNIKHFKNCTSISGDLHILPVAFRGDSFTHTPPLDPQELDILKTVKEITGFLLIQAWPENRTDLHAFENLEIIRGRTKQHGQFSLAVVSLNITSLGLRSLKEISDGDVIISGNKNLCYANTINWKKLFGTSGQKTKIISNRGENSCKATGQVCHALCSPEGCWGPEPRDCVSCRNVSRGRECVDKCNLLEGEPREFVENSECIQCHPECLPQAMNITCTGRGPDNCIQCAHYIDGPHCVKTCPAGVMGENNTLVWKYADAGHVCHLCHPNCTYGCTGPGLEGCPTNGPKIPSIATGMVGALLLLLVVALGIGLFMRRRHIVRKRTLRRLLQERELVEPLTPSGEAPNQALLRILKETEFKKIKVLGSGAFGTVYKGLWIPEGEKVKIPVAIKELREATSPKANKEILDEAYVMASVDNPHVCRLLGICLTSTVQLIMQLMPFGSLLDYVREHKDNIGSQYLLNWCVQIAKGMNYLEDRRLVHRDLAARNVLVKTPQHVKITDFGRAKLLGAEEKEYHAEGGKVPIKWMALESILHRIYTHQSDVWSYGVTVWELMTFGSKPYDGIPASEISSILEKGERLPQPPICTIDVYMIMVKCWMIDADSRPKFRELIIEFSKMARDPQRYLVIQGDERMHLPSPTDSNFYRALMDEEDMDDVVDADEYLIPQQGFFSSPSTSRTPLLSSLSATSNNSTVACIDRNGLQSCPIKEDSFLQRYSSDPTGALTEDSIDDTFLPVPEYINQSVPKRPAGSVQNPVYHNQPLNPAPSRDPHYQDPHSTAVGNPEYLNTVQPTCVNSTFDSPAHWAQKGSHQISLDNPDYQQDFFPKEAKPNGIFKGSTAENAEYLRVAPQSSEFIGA

Row | IC50 (EGFR L858R/C797S; [1]) | IC50 (EGFR del19/T790M/C797S; [2]) | IC50 (EGFR wildtype (WT); [3]) | IC50 (EGFR del19/C797S; [4]) | IC50 (EGFR L858R/T790M/C797S; [5]) | IC50 (EGFR L858R/C797S; [6]) | IC50 (EGFR L858R/C797S; [7]) | IC50 (EGFR del19/T790M/C797S; [8]) | IC50 (EGFR del19/T790M/C797S; [9]) | IC50 (EGFR wildtype (WT); [10]) | IC50 (EGFR wildtype (WT); [11]) | IC50 (EGFR del19/C797S; [12]) | IC50 (EGFR del19/C797S; [13]) | IC50 (EGFR L858R/T790M/C797S; [14]) | IC50 (EGFR L858R/T790M/C797S; [15]) | SMILES
1 | – | – | – | – | – | – | 26.5 nM | – | 25.9 nM | – | 276 nM | – | 119 nM | – | 9.1 nM | O=S(=O)(C1CC1)n1cc(-c2nccc(Nc3cc(NC4CCC(CCF)CC4)c(-c4ccn(C(F)F)n4)cn3)n2)cn1 (centres unmarked) [Example 216, N^2-(2-(1-(Cyclopropylsulfonyl)-1H-pyrazol-4-yl)pyrimidin-4-yl)-5-(1-(difluoromethyl)-1H-pyrazol-3-yl)-N^4-(4-(2-fluoroethyl)cyclohexyl)pyridine-2,4-diamine]
2 | – | – | – | – | – | 29.1 nM | 5.2 nM | 3.7 nM | 4.3 nM | 294 nM | 7.5 nM | 6 nM | 2.1 nM | 1.6 nM | 1.1 nM | CN(C)C(=O)[C@H]1CC[C@@H](Nc2cc(Nc3ccnc(-c4cnn(S(=O)(=O)C5CC5)c4)n3)ncc2-c2cc(C(F)(F)F)n(C)n2)CC1 [Example 257, (1s,4s)-4-((2-((2-(1-(Cyclopropylsulfonyl)-1H-pyrazol-4-yl)pyrimidin-4-yl)amino)-5-(1-methyl-5-(trifluoromethyl)-1H-pyrazol-3-yl)pyridin-4-yl)amino)-N,N-dimethylcyclohexane-1-carboxamide]

The remaining lines, values behind:

Row | SMILES | IC50 (EGFR L858R/C797S; [1]) | IC50 (EGFR del19/T790M/C797S; [2]) | IC50 (EGFR wildtype (WT); [3]) | IC50 (EGFR del19/C797S; [4]) | IC50 (EGFR L858R/T790M/C797S; [5]) | IC50 (EGFR L858R/C797S; [6]) | IC50 (EGFR L858R/C797S; [7]) | IC50 (EGFR del19/T790M/C797S; [8]) | IC50 (EGFR del19/T790M/C797S; [9]) | IC50 (EGFR wildtype (WT); [10]) | IC50 (EGFR wildtype (WT); [11]) | IC50 (EGFR del19/C797S; [12]) | IC50 (EGFR del19/C797S; [13]) | IC50 (EGFR L858R/T790M/C797S; [14]) | IC50 (EGFR L858R/T790M/C797S; [15])
3 | C[C@]1(O)CC[C@@H](Nc2nc(Nc3ccnc(-c4cnn(S(=O)(=O)C5CC5)c4)c3)ncc2-c2ccn(CC(F)F)n2)CC1 [Example 357, (1s,4s)-4-((2-((2-(1-(Cyclopropylsulfonyl)-1H-pyrazol-4-yl)pyridin-4-yl)amino)-5-(1-(2,2-difluoroethyl)-1H-pyrazol-3-yl)pyrimidin-4-yl)amino)-1-methylcyclohexan-1-ol] | 8.4 nM | 0.2 nM | 46.2 nM | 5.2 nM | 0.4 nM | – | – | – | – | – | – | – | – | – | –
4 | CN1CC(Nc2cc(Nc3ccnc(-c4cnn(S(=O)(=O)C5CC5)c4)n3)ncc2-c2ccn(C(F)F)n2)CCC1=O (centres unmarked) [Example 37, 5-((2-((2-(1-(Cyclopropylsulfonyl)-1H-pyrazol-4-yl)pyrimidin-4-yl)amino)-5-(1-(difluoromethyl)-1H-pyrazol-3-yl)pyridin-4-yl)amino)-1-methylpiperidin-2-one] | – | – | – | – | – | 264 nM | 5 nM | 1.4 nM | 1.2 nM | > 10000 nM | 108 nM | 16.6 nM | 12.1 nM | 6.6 nM | 0.7 nM
5 | CCC(C)Nc1cc(Nc2ccnc(-c3cnn(S(=O)(=O)C4CC4)c3)n2)ncc1-c1ccn(CC(F)F)n1 (centres unmarked) [Example 250, N^4-(sec-Butyl)-N^2-(2-(1-(cyclopropylsulfonyl)-1H-pyrazol-4-yl)pyrimidin-4-yl)-5-(1-(2,2-difluoroethyl)-1H-pyrazol-3-yl)pyridine-2,4-diamine] | – | – | – | – | – | – | 4.4 nM | – | 0.9 nM | – | 56.1 nM | – | 63.8 nM | – | 0.9 nM
6 | O=S(=O)(C1CC1)n1cc(-c2nccc(Nc3cc(NCC4CCCC(O)C4)c(-c4ccn(C(F)F)n4)cn3)n2)cn1 (centres unmarked) [Example 32, 3-(((2-((2-(1-(Cyclopropylsulfonyl)-1H-pyrazol-4-yl)pyrimidin-4-yl)amino)-5-(1-(difluoromethyl)-1H-pyrazol-3-yl)pyridin-4-yl)amino)methyl)cyclohexan-1-ol] | – | – | – | – | – | 45.2 nM | 1.9 nM | 1.6 nM | 0.5 nM | > 10000 nM | 18.5 nM | 2.5 nM | 1 nM | 2.5 nM | 0.2 nM
7 | OCC[C@H]1CC[C@@H](Nc2cc(Nc3ccnc(-c4cnn(CC(F)F)c4)n3)ncc2-c2ccn(CC(F)(F)F)n2)CC1 [Example 338, 2-((1s,4s)-4-((2-((2-(1-(2,2-Difluoroethyl)-1H-pyrazol-4-yl)pyrimidin-4-yl)amino)-5-(1-(2,2,2-trifluoroethyl)-1H-pyrazol-3-yl)pyridin-4-yl)amino)cyclohexyl)ethan-1-ol] | 3.9 nM | 0.7 nM | 45.1 nM | 13.2 nM | 0.4 nM | – | – | – | – | – | – | – | – | – | –
